10 compounds from ChEMBL document CHEMBL1145737 (Bioorg Med Chem Lett, 2003) can be followed below.

For orientation: IC50 means the concentration at which inhibition is half-maximal. Low readings indicate greater potency, high ones weaker potency.

The test system of one experiment is Mus musculus. Put plainly: Median survival time was determined after oral administration (10 umol/kg) once daily for 5 days in mouse infected with influenza virus. The class given is functional.
The target in experiment [1] is Neuraminidase (Influenza A virus (A/Puerto Rico/8/1934(H1N1)), UniProt P03468). Briefly: Inhibitory concentration against influenza A virus sialidase A/PR/8/34.
The next experiment deals with MDCK. Briefly: Inhibitory concentration against Influenza A virus (A/Yamagata/32/89) MDCK cells determined by plaque reduction assay. The class given is functional, cell-based. The conditions noted are these: Canis lupus familiaris. Background: In a plaque reduction assay, fewer plaques than in the control indicate reduced infectivity or spread.

In brackets after ≈: the same amount, converted by molar mass. A value given as a limit tells only on which side of the number the result lay.

Chain of Neuraminidase (Influenza A virus (A/Puerto Rico/8/1934(H1N1)), UniProt P03468) (P03468 whole entry): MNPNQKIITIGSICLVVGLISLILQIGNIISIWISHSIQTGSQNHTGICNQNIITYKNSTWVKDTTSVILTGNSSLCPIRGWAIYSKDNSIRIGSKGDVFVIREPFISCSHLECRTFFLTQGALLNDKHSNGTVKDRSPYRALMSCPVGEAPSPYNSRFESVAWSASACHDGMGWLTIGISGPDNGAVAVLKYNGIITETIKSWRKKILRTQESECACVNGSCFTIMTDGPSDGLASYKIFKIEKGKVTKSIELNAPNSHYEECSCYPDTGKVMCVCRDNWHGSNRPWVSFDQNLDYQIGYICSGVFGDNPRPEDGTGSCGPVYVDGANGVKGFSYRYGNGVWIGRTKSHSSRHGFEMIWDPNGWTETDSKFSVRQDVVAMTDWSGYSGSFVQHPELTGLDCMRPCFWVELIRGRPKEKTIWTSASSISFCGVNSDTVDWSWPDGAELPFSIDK

In the case of `CC(=O)N[C@H]1[C@H]([C@@H]2OCC[C@@H](O)[C@H]2O)OC(C(=O)O)=C[C@@H]1NC(=N)N`, the Survival time in the experiment on Mus musculus worked out at 10 days. The concentration for half-maximal inhibition (IC50) is 28.7 nM in experiment [1] and 0.6 ng/mL (≈ 1.67 nM) with MDCK.
With `CC(=O)N[C@H]1[C@H]([C@H]2C[C@@H](O)[C@@H](O)CO2)OC(C(=O)O)=C[C@@H]1NC(=N)N`, the IC50 is 2780 nM in experiment [1] and greater than 100 ng/mL in the experiment on MDCK.
Take `CC(=O)N[C@H]1[C@H]([C@H]2CCCCO2)OC(C(=O)O)=C[C@@H]1NC(=N)N`: the IC50 is 735 nM in experiment [1] and greater than 100 ng/mL with MDCK.
On to `CC(=O)N[C@H]1[C@H]([C@@H]2C[C@H](O)[C@H](O)CO2)OC(C(=O)O)=C[C@@H]1NC(=N)N`, for which the half-maximal inhibitory concentration (IC50) in experiment [1] was 1030 nM; in the experiment on MDCK, greater than 100 ng/mL.
For `CC(=O)N[C@H]1[C@H]([C@@H]2OCC(F)(F)[C@@H](O)[C@H]2O)OC(C(=O)O)=C[C@@H]1NC(=N)N`, the half-maximal inhibitory concentration (IC50) is 27.1 nM in experiment [1] and 1.4 ng/mL (≈ 3.55 nM) with MDCK.
For the compound `CC(=O)N[C@H]1[C@H]([C@H]2C[C@H](O)[C@H](O)CO2)OC(C(=O)O)=C[C@@H]1NC(=N)N`, the IC50 in experiment [1] is 6.84 nM; with MDCK, greater than 100 ng/mL.
As for `CC(=O)N[C@H]1[C@H]([C@@H]2C[C@@H](O)[C@@H](O)CO2)OC(C(=O)O)=C[C@@H]1NC(=N)N`, the figures for the IC50 (in experiment [1]; in the experiment with MDCK) were 10000 nM and greater than 100 ng/mL, respectively.
The like results for `CC(=O)N[C@H]1[C@H]([C@@H]2OCCC[C@@H](O)[C@H]2O)OC(C(=O)O)=C[C@@H]1NC(=N)N` were, in that order, 33.3 nM and 2.2 ng/mL (≈ 5.91 nM).
`CC(=O)N[C@H]1[C@H]([C@@H]2OC[C@@H](O)[C@H]2O)OC(C(=O)O)=C[C@@H]1NC(=N)N`: the figures for the concentration for half-maximal inhibition (IC50) (in experiment [1]; in the experiment on MDCK) were 17.7 nM and 1.4 ng/mL (≈ 4.07 nM), respectively.
Consider `CC(=O)N[C@H]1[C@H]([C@H](O)[C@H](O)CO)OC(C(=O)O)=C[C@@H]1NC(=N)N` [ZANAMIVIR], for which the midpoint of inhibition in the experiment with MDCK, the IC50, lay at 6.6 ng/mL (≈ 19.9 nM).
